Tests used:
PTGR2 [1] = target: T1, PTGR2 (Homo sapiens, UniProt Q8N8N7); assay: Gel-based competitor blockade of FFF 8 labeling of recombinantly expressed FLAG-tagged PTGR2 in HEK293T cells; assay type: binding
Procedure: (§1) For gel-based experiments, cells were grown in 6-well plates to ˜90% confluence at the time of treatment. Cells were carefully washed with Dulbecco's phosphate buffered saline (DPBS) and replenished with fresh serum-free media containing indicated FFF probe, and, if applicable, competitors or DMSO vehicle (1 mL). Following incubation at 37° C. for 30 min, cells were directly exposed to 365 nm light for 10 min. For no UV experiments, cells were incubated at 4° C. for 10 min under ambient light. For MS-based experiments, cell labeling was performed in a similar manner as described above. Modifications to this protocol included using isotopically ‘light’ and ‘heavy’ SILAC cells that were grown to near complete confluence prior to treatment in 10 cm plates. […]
(§2) Cells pellets were lysed in cold DPBS (100-500 µL) using a Branson Sonifier probe sonicator (10 pulses, 30% duty cycle, output setting=4). […] Protein concentration was determined using the DC Protein Assay (Bio-Rad) and absorbance read using a Tecan, Infinite F500 plate reader following manufacturer's instructions. […]
(§3) Proteomes from treated cells were diluted to 1 mg/mL. […] Proteins (25 µg total protein loaded per gel lane) were resolved using SDS-PAGE (10% acrylamide) and visualized by in-gel fluorescence on a Hitachi FMBIO-II or a Bio-Rad ChemiDoc™ MP flatbed fluorescence scanner. […]

PTGR2 [2] = target: T1, PTGR2; assay: PPARγ luciferase reporter assay in PTGR2-transfected HEK293T cells (15-keto-PGE2-dependent); assay type: cell-based; details: cells recombinantly expressing PTGR2
Procedure: (§4) HEK293T cells were transiently co-transfected using Polyethylenimine (Sigma) with a UAS-Luciferase reporter and a vector expressing the heterologous GAL4 DNA binding domain (DBD) or a GAL4 DNA binding domain::PPARγ ligand binding domain (LBD) chimeric protein, and full-length PTGR2. 24 hr after transfection, cells were treated either with vehicle (DMSO), 15k-PGE2 (20 μM), or fragment compounds. Rosiglitazone (2 μM), a synthetic PPARγ ligand, was used as control. 16 hr after incubation, cells were lysed in Cell Culture Lysis Reagent (Promega) and luciferase activity measured using the Luciferase Assay System (Promega).

PTGR2 [3] = target: T1, PTGR2; assay: In vitro LCMS-based activity assay for PTGR2 (15-keto-PGE2 reductase activity); assay type: biochemical
Procedure: Aliquots (1 μL) of test compounds dissolved in DMSO were transferred to 1.5 mL eppendorf tubes followed by addition of recombinant human PTGR2 (44 μL, 200 nM final concentration) in freshly prepared reaction buffer (Tris Buffer, 1 mM EDTA, 50 μM TCEP, 300 μM NADPH). The resulting mixture was vortexed and then incubated at 37° C. for 20 min. Next, a 5 μL solution of 15-keto-PGE2 substrate (20 μM final concentration) in reaction buffer was added and the reaction was allowed to proceed for 30 min at 37° C. Reactions were quenched by the addition of 0.5% AcOH in ethyl acetate (800 μL), water (300 μL) and 100 μL of internal standard PGE2-d4 (30 pmol/sample) dissolved in 1:1 methanol/water. Phases were separated by centrifugation and the organic layer was collected and dried under a stream of N2, then stored at −80° C. until analysis. Directly prior to analysis, samples were reconstituted in 100 μL of MeCN:H2O (1:1, v/v) and analyzed by LC/MS/MS. All conditions were performed in triplicate and repeated at least three independent times.
The following MS parameters were used to measure the indicated metabolites by MRM (precursor ion, product ion, collision energy, polarity): PGE2-d4 (355, 275, 18), 13,14-dihydro-15-keto-PGE2 (351, 333, 18) and 15-keto-PGE2 (349, 161, 20). 15-keto-PGE2 and 13,14-dihydro-15-keto-PGE2 levels were quantified by determining peak areas in relation to internal standard PGE2-d4. Non-deuterated 15-keto-PGE2 and 13,14-dihydro-15-keto-PGE2 standards were used to confirm retention time and fragmentation.
All data fitting and statistical analysis performed using GraphPad Prism version 6.00 for Windows, GraphPad Software, La Jolla Calif. USA, www.graphpad.com. Statistical values including the exact n and statistical significance are also reported. Probe binding blockade and PTGR2 inhibition curves are plotted as mean±SD (n=3 or 4 per group) for a representative biological replicate using a variable slope (four parameter) non-linear fit. Gene expression data are presented as mean±SD (n=3 per group). HSC5 metabolite data are shown as mean±SD (n=3 per group). Statistical significance was defined as P<0.05 and determined by 2-tailed Student t tests, or two-way ANOVA with Bonferroni's post-tests.

PPARγ = target: T2, PPARγ (Homo sapiens, UniProt P37231); assay: GAL4-PPARγ luciferase reporter assay with empty control vector in HEK293T cells; assay type: cell-based; details: GAL4-PPARγ luciferase reporter and empty control vector
T2 construct: expressed in transfected cells; host or cells: HEK293T
T2 sequence (P37231 238-503 limits assumed): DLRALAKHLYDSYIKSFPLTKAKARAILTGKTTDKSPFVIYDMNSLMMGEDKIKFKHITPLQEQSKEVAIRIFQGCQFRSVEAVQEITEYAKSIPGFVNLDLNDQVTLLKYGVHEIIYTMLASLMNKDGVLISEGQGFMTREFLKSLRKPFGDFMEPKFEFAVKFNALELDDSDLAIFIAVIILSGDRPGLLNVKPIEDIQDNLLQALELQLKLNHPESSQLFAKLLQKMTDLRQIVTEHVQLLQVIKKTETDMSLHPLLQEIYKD
Procedure: as §4

PTGR2 [4] = target: T1, PTGR2; details: only reported inhibitor of PTGR2; read-out: in vitro IC50 (PTGR2); cited from earlier work
[5] = system: proteins in HEK293T cells; assay: Gel-based profiling of FFF probe-protein labeling in cells; assay type: binding, human; details: 20 μM, 30 min, UV
Procedure: as §1, §2, §3

T1 sequence (Q8N8N7 whole entry): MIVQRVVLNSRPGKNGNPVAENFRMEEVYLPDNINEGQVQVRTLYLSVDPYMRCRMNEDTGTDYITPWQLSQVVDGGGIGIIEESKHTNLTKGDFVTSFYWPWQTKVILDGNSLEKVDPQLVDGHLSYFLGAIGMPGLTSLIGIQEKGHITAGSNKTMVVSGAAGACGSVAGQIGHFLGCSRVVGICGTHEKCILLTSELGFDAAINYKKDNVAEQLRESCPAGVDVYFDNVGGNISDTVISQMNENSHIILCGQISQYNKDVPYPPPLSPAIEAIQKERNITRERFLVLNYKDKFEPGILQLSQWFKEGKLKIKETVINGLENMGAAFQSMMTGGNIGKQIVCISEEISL

COc1ccccc1C1CCN(S(=O)(=O)Cc2ccccc2)CC1 [Compound 23, 1-(Benzylsulfonyl)-4-(2-methoxyphenyl)piperidine]
competitor blockade of FFF 8 labeling of recombinant PTGR2 (gel) (PTGR2 [1]): did not affect
15-keto-PGE2-dependent PPARγ transcriptional activity (PTGR2 [2]): no effect
effect on 15-keto-PGE2 reductase (catalytic) activity of recombinant PTGR2 (PTGR2 [3]): did not affect
direct modulation of PPARγ transcriptional activity (PPARγ): Neither 22 nor 23 directly modulated

COc1ccc2c(c1)c(CC(=O)O)c(C)n2C(=O)c1ccc(Cl)cc1 [indomethacin]
IC50 (PTGR2 [4]): ~200 µM

C#CCCC1(CCC(=O)NC)N=N1 [probe 1, 3-(3-(But-3-yn-1-yl)-3H-diazirin-3-yl)-N-methylpropanamide]
protein labeling in HEK293T cells (in-gel fluorescence) [5]: much less protein labeling
